Test results reported in patent publication US7396946B2, “Compound for treatment of external secretion disorders” (Sucampo AG, priority 1999, dated 2008).
Marks after values point to notes of the source that are not given here.

Key:
[1] = tested on: Rabbit Dry-eye Syndrome Model, which was Induced by Trigeminal Denervation; assay: Whole tear secretion (Schirmer's test) in rabbit dry-eye syndrome model induced by trigeminal denervation (Test Example 2); type: in vivo, male Japanese albino rabbits (Std:JW/CSK); conditions: for whole tear secretion: 5 eyes
Procedure: (§1) Fifteen male Japanese albino rabbits (Std:JW/CSK) were used.
(§2) (2) Generating Rabbit Dry-eye Syndrome Model by Trigeminal Denervation.
(§3) Urethane (ALDRICH) was administered i.p. at the dose of 1 g/kg to the rabbits of which occipital hair had been shaved.
(§4) After disinfecting of the shaved area, midline incision of the skin was made from the frontal bone to the ear root, and the muscular tissue around the periosteum, temporal bone and manidibular articular process were detached. After the detachment, a hole of 2×1.5 cm in size was made in the bone from the parietal medial region to the temporal region by means of the bone drill (URAWA KOGYO Co., Ltd. MINITOR C-130) under the surgical microscope (KONAN CAMERA R&I Inc., PMO-50). Then, the dura was detached from the cranial bone while cotton bud was kept inserted between the temporal bone and the dura. After the detachment was made up to the cranial base, detachment was further made toward the medial border of the petrous part of temporal bone in the carnial cavity, to find the trigeminal nerve in the petrous part. Then, the dura of about 1 to 2 mm on the nasal side of the semilunar ganglion was incised. After the incision, the two branches of nerve fascicle, i.e. the first branch (ocular nerve) of the trigeminal nerve and the second branch (maxillary nerve) were pulled laterally and cut with corneoscleral scissors. Immediately after the operation, miosis of the ipsilateral eye was confirmed and then the cotton kept inserted was removed, and the skin at the head was closed with suture. After the operation, an antibiotic (MYCILLIN SQL® Meiji) was administered i.m. at the dose of 0.1 ml/kg.
(§5) The trigeminal denervation was made only on the left eye side, while on the right eye side, no trigeminal denervation nor sham operation was made.
(§6) (3) Method of Administration.
(§7) 13,14-dihydro-15-keto-16,16-difluoro-PGE1 was used as an active ingredient of the present invention to prepare test eyedrops containing 0.0001% and 0.001% of the compound. As a control, the vehicle of the eyedrops without the active ingredient was used.
(§8) Each of the compositions was instilled to the eyes everyday at the volume of 30 μl/eye two times a day (at 10:00 and 18:00) for two weeks. Five eyes per each of the test groups and the control group were treated and then examined for the whole tear secretion, the basal tear secretion and the keratoepithelial lesion as follows.
i) Whole Tear Secretion (Schirmer's Test)
Before the start of the instillation (week 0), and 1, 2, and 3 weeks after the start, the whole tear secretion was measured two hours after the first instillation on the day of examination.
Under no anesthetization, one edge of the Schirmer's test strip (Showa Yakuhin Kako Co., Ltd., Lot No. 70080) was inserted into the conjunctival sac of each test animal. One minute after, the strip was removed and the length of the moistened part was read from the scale provided on the strip to determine the amount of whole tear secretion.

[2] = tested on: Rabbit Dry-eye Syndrome Model, which was Induced by Trigeminal Denervation; assay: Basal tear secretion in rabbit dry-eye syndrome model induced by trigeminal denervation (Test Example 2); type: in vivo, male Japanese albino rabbits (Std:JW/CSK); conditions: for basal tear secretion: 5 eyes
Procedure: as §1, §2, §3, §4, §5, §6, §7, §8
Before the start of the instillation (week 0), and 1, 2, and 3 weeks after the start, the basal tear secretion was measured 2 hours after the 1st instillation on the day of the examination.
Keratoconjunctiva was anesthetized by instillation of 4% lidocaine (Xylocalne® 4% for ophthalmic solution; Fujisawa Pharmaceutical Co., Ltd.), the eye drops and the tear around the eyelid were wiped off about 5 minutes after and loss of keratoconjunctival esthesia was confirmed with the Cochet-Bonnet type esthesiometer. Then, one edge of the Shirmer's test strip was inserted into the conjunctival sac and kept there for 5 minutes. The length of the moistened part was read from the scale on the strip.
The basal tear secretion was expressed by mean value per minute calculated from the 4-minutes value obtained by subtracting the initial 1-minute value from the 5-minutes Sirmer's test, so that the spontaneous volume of the tear retained in the conjunctival sac might be excluded.

[3] = 0.0001% eyedrops 30 μl/eye two times a day for two weeks, week 1
[4] = 0.0001% eyedrops 30 μl/eye two times a day for two weeks, week 2
[5] = 0.0001% eyedrops 30 μl/eye two times a day for two weeks, week 3
[6] = 0.001% eyedrops 30 μl/eye two times a day for two weeks, week 1
[7] = 0.001% eyedrops 30 μl/eye two times a day for two weeks, week 2
[8] = 0.001% eyedrops 30 μl/eye two times a day for two weeks, week 3
[9] = dry-eye syndrome model animals, 0.0001% and 0.001% eyedrops
[10] = test group 0.0001% eyedrops, before administration (after operation, baseline)
[11] = test group 0.001% eyedrops, before administration (after operation, baseline)

For `CCCCC(F)(F)C(=O)CCC1C(O)CC(=O)C1CCCCCCC(=O)O` (stereo not drawn) [13,14-dihydro-15-keto-16,16-difluoro-PGE1], the whole tear secretion [1, 3] was 7.10 ± 0.51**^++ mm/min, the whole tear secretion [1, 4] was 6.60 ± 0.37*^##++ mm/min and the whole tear secretion [1, 5] was 6.30 ± 0.68^++ mm/min. The whole tear secretion [1, 6] was 11.20 ± 0.51**^##++ mm/min, the whole tear secretion [1, 7] was 10.50 ± 0.57**^##++ mm/min and the whole tear secretion [1, 8] was 9.90 ± 0.81**^##++ mm/min. For the same molecule, the “decreased whole tear secretion (result in words)” value [1, 9] was “improved”, the whole tear secretion [1, 10] was 3.00 ± 0.61 mm/min and the whole tear secretion [1, 11] was 3.20 ± 0.51 mm/min. The basal tear secretion [2, 3] was 1.53 ± 0.26^[+] mm/min, the basal tear secretion [2, 4] was 1.60 ± 0.11**^++ mm/min and the basal tear secretion [2, 5] was 1.48 ± 0.17^#[++] mm/min. The basal tear secretion [2, 6] was 2.00 ± 0.12*^##++ mm/min, the basal tear secretion [2, 7] was 2.00 ± 0.18*^##++ mm/min and the basal tear secretion [2, 8] was 2.00 ± 0.14*^##++ mm/min. The “decreased basal tear secretion (result in words)” value [2, 9] was “improved”, the basal tear secretion [2, 10] was 0.43 ± 0.06^[**^] mm/min and the basal tear secretion [2, 11] was 0.43 ± 0.08 mm/min.
